{"source": "paper PMC9154192", "about": "(PLoS Biology, 2022)", "conditions": "for % MNPCE (Mean ± S.D.) / % PCE (Mean ± S.D.): 24 hours after dosing", "method": "Genotoxicity studies for PP2S were performed according to the ICH (International conference on harmonization) harmonized tripartite guideline, S2(R1). Regarding previous reports, the bacterial reverse mutation test, chromosomal abnormality test, and mouse bone marrow micronucleus test were performed with slight modifications.", "note": "Where two headings read alike, the source gives them in different places.", "data": [{"smiles": "CCCCOc1ccc2cc(CN3C(=O)CC[C@H]3C(=O)OC)c3cc(OC)c(OC)cc3c2c1", "note": "[PP2S, Methyl (S)-1-((3-butoxy-6,7-dimethoxyphenanthren-9-yl)methyl)-5-oxopyrrolidine-2-carboxylate]", "values": [{"measurement": "Mean body weights ± S.D.", "setting": "500 mg/kg P.O., 0 day", "value": "35.9 ± 1.16", "unit": "g"}, {"measurement": "Mean body weights ± S.D.", "setting": "500 mg/kg P.O., 1 day", "value": "35.5 ± 1.48", "unit": "g"}, {"measurement": "% MNPCE (Mean ± S.D.)", "setting": "500 mg/kg P.O.", "value": "0.055 ± 0.037", "unit": "%"}, {"measurement": "% PCE (Mean ± S.D.)", "setting": "500 mg/kg P.O.", "value": "30.5 ± 2.16", "unit": "%"}, {"measurement": "Mean body weights ± S.D.", "setting": "1000 mg/kg P.O., 0 day", "value": "35.9 ± 1.07", "unit": "g"}, {"measurement": "Mean body weights ± S.D.", "setting": "1000 mg/kg P.O., 1 day", "value": "36.1 ± 1.42", "unit": "g"}, {"measurement": "% MNPCE (Mean ± S.D.)", "setting": "1000 mg/kg P.O.", "value": "0.060 ± 0.034", "unit": "%"}, {"measurement": "% PCE (Mean ± S.D.)", "setting": "1000 mg/kg P.O.", "value": "31.8 ± 2.49", "unit": "%"}, {"measurement": "Mean body weights ± S.D.", "setting": "2000 mg/kg P.O., 0 day", "value": "35.9 ± 1.14", "unit": "g"}, {"measurement": "Mean body weights ± S.D.", "setting": "2000 mg/kg P.O., 1 day", "value": "34.9 ± 1.63", "unit": "g"}, {"measurement": "% MNPCE (Mean ± S.D.)", "setting": "2000 mg/kg P.O.", "value": "0.055 ± 0.021", "unit": "%"}, {"measurement": "% PCE (Mean ± S.D.)", "setting": "2000 mg/kg P.O.", "value": "33.6 ± 1.67", "unit": "%"}, {"measurement": "RPD (relative population doubling)", "setting": "S9 mix +, Trt-Rec 6-18 hr, 125 µg/mL", "value": 69.4, "unit": "%"}, {"measurement": "RPD (relative population doubling)", "setting": "S9 mix +, Trt-Rec 6-18 hr, 250 µg/mL", "value": 67.4, "unit": "%"}, {"measurement": "RPD (relative population doubling)", "setting": "S9 mix -, Trt-Rec 6-18 hr, 125 µg/mL", "value": 78.8, "unit": "%"}, {"measurement": "RPD (relative population doubling)", "setting": "S9 mix -, Trt-Rec 6-18 hr, 250 µg/mL", "value": 74.3, "unit": "%"}, {"measurement": "RPD (relative population doubling)", "setting": "S9 mix -, Trt-Rec 24-0 hr, 125 µg/mL", "value": 46.9, "unit": "%"}, {"measurement": "RPD (relative population doubling)", "setting": "S9 mix -, Trt-Rec 24-0 hr, 250 µg/mL", "value": 38.6, "unit": "%"}, {"measurement": "genotoxicity", "setting": "bone marrow micronucleus formation test", "value": "did not show genotoxicity"}]}]}
